Laboratory results taken from PMC7316778 (Nature Communications, 2020).
Values joined by “and” are separate entries in the source; they are usually repeats but may differ in a detail not shown here. Equal entries are not always repeated. Where two headings read alike, the source gives them in different places.

Legend:
[1] = biological target: T1, endogenous FES^S700C in HL-60 cells (Homo sapiens, UniProt P07332, S700C); experiment: Gel-based target engagement during PMA-induced macrophage differentiation; assay type: cell-based; conditions: for Relative FES labeling (%): Figure 6b
T1 construct: endogenous in cells; host or cells: HL-60 FES^S700C clone, differentiated to macrophages or neutrophils
T1 sequence (P07332 whole entry S700C): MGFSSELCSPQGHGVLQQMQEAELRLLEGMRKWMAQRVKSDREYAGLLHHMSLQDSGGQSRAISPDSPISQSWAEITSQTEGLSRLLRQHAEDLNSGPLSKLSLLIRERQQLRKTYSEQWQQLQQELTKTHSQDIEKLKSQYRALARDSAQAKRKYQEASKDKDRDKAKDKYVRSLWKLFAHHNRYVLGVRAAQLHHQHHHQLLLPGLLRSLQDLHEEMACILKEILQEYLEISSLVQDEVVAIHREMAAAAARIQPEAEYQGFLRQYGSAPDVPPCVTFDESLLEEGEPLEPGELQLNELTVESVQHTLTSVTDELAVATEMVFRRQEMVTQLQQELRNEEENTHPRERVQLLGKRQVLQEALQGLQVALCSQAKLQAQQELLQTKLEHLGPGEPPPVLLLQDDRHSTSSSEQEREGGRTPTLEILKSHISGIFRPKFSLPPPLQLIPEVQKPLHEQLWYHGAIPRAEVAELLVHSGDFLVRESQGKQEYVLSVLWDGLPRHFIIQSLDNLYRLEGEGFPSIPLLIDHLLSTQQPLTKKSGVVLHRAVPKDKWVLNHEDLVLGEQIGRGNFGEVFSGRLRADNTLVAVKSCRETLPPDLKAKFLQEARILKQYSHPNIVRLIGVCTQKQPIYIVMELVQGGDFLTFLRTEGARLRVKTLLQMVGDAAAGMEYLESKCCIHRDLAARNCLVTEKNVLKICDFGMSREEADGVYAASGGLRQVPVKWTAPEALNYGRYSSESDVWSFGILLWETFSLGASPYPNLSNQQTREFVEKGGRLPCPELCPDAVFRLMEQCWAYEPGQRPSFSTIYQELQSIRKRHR
Experimental: Cells were pretreated with vehicle or WEL028 (100 or 1000 nM, 1 h) prior to induction of differentiation towards monocytes/macrophages with PMA (16 nM, 48 h). Medium was refreshed with growth medium containing WEL028 and PMA after 24 h to maintain full FES inhibition. […] Threshold for CD11b-positive cells was determined using isotype control antibody. […] Kinases with native cysteine at DFG-1 position are shown in bold. All data represent means ± SEM.

RPS6KB2 (p70S6Kb) = RPS6KB2 (p70S6Kb) (Homo sapiens, UniProt Q9UBS0); experiment: SelectScreen kinase assay
Sequence of RPS6KB2 (p70S6Kb) (Q9UBS0 whole entry): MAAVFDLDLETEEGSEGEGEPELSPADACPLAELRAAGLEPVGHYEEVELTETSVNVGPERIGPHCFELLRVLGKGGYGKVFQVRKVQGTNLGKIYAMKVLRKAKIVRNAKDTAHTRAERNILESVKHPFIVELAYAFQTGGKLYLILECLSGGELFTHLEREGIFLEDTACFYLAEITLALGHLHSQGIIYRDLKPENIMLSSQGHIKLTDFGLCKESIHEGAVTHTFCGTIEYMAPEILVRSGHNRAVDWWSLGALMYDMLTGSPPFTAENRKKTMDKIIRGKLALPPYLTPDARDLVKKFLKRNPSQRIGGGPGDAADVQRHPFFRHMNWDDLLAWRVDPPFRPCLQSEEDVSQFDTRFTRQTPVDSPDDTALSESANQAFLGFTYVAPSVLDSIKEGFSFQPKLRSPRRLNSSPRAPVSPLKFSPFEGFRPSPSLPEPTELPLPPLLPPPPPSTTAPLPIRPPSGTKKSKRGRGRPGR
Experimental: (§1) Selectivity profiling assays were performed by the Invitrogen SelectScreen™ Services. […] The concentration of ATP was selected to be equal to the KM, unless indicated otherwise.

IKBKE (IKK epsilon) = IKBKE (IKK epsilon) (Homo sapiens, UniProt Q14164); experiment: SelectScreen kinase assay; conditions: 1 h, 1 μM WEL028, 1 h preincubation
Experimental: as §1

PIK3C3 (hVPS34) = PIK3C3 (hVPS34) (Homo sapiens, UniProt Q8NEB9); experiment: SelectScreen kinase assay
Sequence of PIK3C3 (hVPS34) (Q8NEB9 whole entry): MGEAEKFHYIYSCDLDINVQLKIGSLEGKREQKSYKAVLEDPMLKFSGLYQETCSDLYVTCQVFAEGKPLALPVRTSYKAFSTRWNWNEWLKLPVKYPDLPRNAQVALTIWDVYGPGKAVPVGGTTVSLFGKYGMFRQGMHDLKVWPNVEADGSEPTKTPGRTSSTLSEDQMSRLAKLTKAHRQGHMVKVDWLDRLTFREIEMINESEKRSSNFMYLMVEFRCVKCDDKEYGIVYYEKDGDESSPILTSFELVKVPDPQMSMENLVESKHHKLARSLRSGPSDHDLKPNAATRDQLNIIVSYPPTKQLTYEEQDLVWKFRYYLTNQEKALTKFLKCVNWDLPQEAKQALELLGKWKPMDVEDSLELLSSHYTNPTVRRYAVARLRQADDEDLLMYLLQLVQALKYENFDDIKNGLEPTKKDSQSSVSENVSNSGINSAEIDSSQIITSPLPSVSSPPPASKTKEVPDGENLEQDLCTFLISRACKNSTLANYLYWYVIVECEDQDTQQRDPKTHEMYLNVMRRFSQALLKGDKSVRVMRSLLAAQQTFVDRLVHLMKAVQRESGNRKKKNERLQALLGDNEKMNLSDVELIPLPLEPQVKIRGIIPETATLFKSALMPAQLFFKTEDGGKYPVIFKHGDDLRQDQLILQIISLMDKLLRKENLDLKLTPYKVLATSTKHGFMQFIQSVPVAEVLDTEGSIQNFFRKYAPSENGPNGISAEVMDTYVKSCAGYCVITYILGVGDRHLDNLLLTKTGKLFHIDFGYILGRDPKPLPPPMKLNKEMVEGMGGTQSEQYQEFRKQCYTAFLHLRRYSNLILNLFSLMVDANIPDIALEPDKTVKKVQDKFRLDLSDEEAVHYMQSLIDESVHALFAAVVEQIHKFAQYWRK
Experimental: as §1

ZAK = ZAK (Homo sapiens, UniProt Q9NYL2); experiment: SelectScreen kinase assay; conditions: for Inhibition at 1 µM (%): LanthaScreen Binding
Sequence of ZAK (Q9NYL2 whole entry): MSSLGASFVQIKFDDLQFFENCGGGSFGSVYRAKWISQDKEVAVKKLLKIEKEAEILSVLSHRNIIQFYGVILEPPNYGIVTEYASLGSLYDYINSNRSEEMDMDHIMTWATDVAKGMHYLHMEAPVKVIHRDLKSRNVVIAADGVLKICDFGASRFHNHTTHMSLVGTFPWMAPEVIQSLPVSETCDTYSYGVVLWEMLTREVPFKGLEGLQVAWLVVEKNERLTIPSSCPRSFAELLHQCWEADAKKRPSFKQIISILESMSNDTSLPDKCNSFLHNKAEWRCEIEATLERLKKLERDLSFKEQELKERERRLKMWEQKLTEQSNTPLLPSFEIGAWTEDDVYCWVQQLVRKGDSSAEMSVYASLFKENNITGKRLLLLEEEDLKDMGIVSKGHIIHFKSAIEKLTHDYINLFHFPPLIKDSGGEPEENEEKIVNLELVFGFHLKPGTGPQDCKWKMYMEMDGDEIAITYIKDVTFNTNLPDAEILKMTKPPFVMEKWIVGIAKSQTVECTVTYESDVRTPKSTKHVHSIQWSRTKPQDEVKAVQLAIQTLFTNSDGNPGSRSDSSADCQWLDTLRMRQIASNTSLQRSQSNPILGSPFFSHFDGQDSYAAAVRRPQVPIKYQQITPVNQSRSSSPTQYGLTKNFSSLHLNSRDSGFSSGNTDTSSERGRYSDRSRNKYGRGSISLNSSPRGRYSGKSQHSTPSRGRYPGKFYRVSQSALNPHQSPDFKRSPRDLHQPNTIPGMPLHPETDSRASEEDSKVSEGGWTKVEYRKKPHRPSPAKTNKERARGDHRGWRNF
Experimental: as §1

EGFR (ErbB1) = EGFR (ErbB1) (Homo sapiens, UniProt P00533); experiment: SelectScreen kinase assay
Sequence of EGFR (ErbB1) (P00533 25-1210): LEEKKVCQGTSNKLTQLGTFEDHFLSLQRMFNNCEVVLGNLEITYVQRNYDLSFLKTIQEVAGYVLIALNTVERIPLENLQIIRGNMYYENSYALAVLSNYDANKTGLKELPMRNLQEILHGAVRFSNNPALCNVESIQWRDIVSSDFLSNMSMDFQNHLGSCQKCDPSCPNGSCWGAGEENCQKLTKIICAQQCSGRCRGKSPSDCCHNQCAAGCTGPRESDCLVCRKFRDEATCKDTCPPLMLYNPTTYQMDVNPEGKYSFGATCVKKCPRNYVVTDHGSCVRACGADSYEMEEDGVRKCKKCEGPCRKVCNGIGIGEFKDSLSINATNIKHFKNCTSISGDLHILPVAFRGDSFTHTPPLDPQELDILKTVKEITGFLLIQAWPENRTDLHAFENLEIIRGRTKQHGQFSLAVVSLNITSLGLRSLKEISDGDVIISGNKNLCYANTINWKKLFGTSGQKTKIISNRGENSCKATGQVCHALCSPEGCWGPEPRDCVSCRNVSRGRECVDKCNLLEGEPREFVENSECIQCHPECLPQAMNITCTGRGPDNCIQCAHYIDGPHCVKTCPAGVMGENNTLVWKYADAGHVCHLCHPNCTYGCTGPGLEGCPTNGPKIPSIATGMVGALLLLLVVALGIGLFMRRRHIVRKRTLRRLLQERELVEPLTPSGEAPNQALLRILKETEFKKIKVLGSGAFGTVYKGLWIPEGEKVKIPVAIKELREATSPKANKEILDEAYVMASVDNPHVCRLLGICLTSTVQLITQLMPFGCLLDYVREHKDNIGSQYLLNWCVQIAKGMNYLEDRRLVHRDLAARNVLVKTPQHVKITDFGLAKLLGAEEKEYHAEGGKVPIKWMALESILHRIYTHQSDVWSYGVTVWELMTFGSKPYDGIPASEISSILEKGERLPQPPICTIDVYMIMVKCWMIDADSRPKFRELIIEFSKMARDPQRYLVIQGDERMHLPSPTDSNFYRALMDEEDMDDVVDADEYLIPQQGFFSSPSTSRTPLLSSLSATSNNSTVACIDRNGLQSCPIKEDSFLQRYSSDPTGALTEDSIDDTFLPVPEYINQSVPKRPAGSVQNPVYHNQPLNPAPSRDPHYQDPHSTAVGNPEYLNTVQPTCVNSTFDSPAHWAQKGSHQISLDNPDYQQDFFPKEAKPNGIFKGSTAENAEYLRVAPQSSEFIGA
Experimental: as §1

WNK2 = WNK2 (Homo sapiens, UniProt Q9Y3S1); experiment: SelectScreen kinase assay
Experimental: as §1

GRK4 = GRK4 (Homo sapiens, UniProt P32298); experiment: SelectScreen kinase assay; conditions: for Inhibition at 1 µM (%): GRK4, ZLYTE, ATP Km app
Sequence of GRK4 (P32298 whole entry): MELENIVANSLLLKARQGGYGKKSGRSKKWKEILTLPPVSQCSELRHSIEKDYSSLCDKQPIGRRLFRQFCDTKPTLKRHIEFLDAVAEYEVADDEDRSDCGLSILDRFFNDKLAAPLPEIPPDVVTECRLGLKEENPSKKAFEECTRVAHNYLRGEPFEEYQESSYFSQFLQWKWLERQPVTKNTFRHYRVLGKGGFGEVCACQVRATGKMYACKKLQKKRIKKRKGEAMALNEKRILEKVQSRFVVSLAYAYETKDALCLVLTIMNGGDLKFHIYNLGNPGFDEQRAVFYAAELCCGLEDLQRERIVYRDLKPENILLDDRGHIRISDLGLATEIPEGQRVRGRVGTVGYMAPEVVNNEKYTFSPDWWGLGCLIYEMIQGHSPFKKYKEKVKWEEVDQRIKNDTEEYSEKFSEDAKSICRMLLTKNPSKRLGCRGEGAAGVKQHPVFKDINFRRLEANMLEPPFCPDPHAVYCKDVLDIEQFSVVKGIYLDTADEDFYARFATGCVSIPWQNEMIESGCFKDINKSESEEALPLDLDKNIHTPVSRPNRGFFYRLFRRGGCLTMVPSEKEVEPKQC
Experimental: as §1

ULK2 = biological target: T2, ULK2 (Homo sapiens, UniProt Q8IYT8); experiment: SelectScreen kinase assay
T2 sequence (Q8IYT8 1-1036): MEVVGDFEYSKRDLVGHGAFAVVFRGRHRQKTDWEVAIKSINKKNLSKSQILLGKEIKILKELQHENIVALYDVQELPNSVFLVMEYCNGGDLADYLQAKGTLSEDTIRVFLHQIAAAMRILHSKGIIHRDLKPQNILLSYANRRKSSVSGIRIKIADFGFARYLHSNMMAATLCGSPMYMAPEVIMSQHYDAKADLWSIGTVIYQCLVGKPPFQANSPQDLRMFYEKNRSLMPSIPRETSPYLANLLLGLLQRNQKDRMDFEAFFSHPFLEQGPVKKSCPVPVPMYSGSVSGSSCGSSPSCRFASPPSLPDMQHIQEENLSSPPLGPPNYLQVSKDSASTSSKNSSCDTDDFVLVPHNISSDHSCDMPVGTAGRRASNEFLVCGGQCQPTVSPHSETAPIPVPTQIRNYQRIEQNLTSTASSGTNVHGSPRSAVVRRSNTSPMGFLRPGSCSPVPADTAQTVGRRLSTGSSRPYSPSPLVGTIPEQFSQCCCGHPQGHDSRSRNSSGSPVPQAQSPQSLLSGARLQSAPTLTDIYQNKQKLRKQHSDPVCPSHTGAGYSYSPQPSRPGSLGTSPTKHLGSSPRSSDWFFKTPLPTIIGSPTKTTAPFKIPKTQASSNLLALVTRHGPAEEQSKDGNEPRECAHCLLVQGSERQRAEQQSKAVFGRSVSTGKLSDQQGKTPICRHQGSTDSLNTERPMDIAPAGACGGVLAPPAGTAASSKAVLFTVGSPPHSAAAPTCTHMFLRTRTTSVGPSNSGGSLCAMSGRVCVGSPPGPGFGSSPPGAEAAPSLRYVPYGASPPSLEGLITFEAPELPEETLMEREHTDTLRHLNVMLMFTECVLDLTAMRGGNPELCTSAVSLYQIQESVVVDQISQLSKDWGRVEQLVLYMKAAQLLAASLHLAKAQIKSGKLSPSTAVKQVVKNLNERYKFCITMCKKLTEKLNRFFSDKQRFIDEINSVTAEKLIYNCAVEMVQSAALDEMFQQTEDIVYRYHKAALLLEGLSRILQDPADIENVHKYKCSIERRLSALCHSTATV
Experimental: as §1

~150 kDa protein = ~150 kDa protein (Homo sapiens, UniProt O14976); experiment: Gel-based target engagement in HL-60 neutrophils; conditions: HL-60, read-out: Inhibition of off-target labeling
Experimental: Data represent means ± SEM.
The term in situ is used to designate experiments in which live cell cultures are treated with inhibitor, whereas the term in vitro refers to experiments in which the inhibitor is incubated with cell lysates. Compounds were diluted in growth medium from a 1000x concentrated stock solution in DMSO. […] After 48 h, cells were treated with compound for 1 h. Cells were collected by suspension in PBS and centrifuged (1000g, 5 min, rt). Pellets were flash-frozen in liquid nitrogen and stored at −80 °C until use. For in situ treatment post-differentiation, HL-60 cells were differentiated as described above and incubated with compound for 1 h unless specified otherwise. Cells were collected by suspension for non-adherent cells and trypsinization for adherent cells. After collection, cells were centrifuged (200g, 5 min, rt) and washed in equal volume of PBS (1000g, 5 min, rt). Cell pellets were flash-frozen in liquid nitrogen and stored at −80 °C until use.

CDK2/cyclin A = CDK2/cyclin A (Homo sapiens, UniProt P24941); experiment: SelectScreen kinase assay
Experimental: as §1

NEK2 = NEK2 (Homo sapiens, UniProt P51955); experiment: SelectScreen kinase assay
Experimental: as §1

[2] = 1 h, 1 μM WEL028, 1 h preincubation
[3] = 1 µM, LanthaScreen Binding, listed as WEL028, 1 µM
[4] = read-out: Inhibition at 1 µM (%), 1 µM, LanthaScreen Binding

SMILES: C#CCOc1ccc(Nc2ncc(Cl)c(Nc3ccccc3NC(=O)C=C)n2)c(OC)c1 [Compound 6]
- Target engagement of engineered FES ([1]; 100 nM WEL028 during PMA-induced differentiation): full target engagement
- Relative FES labeling (%) ([1]; WEL028 100 nM): 6.297% and 1.811% and 0.4549%
- Relative FES labeling (%) ([1]; WEL028 1 µM): -1.423% and -3.177% and -0.4317%
- Inhibition at 1 µM (%) (RPS6KB2 (p70S6Kb); 1 µM, ZLYTE, ATP Km app, listed as WEL028, 1 µM): 1% and 4%
- inhibition at 1 µM (RPS6KB2 (p70S6Kb); [2]): 3%
- inhibition at 1 µM (IKBKE (IKK epsilon)): 2%
- inhibition at 1 µM (PIK3C3 (hVPS34); [2]): 11%
- Inhibition at 1 µM (%) (PIK3C3 (hVPS34); PIK3C3 (hVPS34), 1 µM, Adapta, ATP Km app, listed as WEL028, 1 µM): 12%
- inhibition at 1 µM (PIK3C3 (hVPS34); read-out: Inhibition at 1 µM (%), PIK3C3 (hVPS34), 1 µM, Adapta, ATP Km app): 11%
- Inhibition at 1 µM (%) (ZAK): 2%
- Inhibition at 1 µM (%) (ZAK; listed as WEL028, 1 µM): 6%
- inhibition at 1 µM (ZAK; [2]): 4%
- Inhibition (%) (EGFR (ErbB1); 1 μM WEL028, 1 h preincubation): 6%
- Inhibition at 1 µM (%) (EGFR (ErbB1); EGFR (ErbB1), 1 µM, ZLYTE, ATP Km app, listed as WEL028, 1 µM): 8%
- inhibition at 1 µM (EGFR (ErbB1); read-out: Inhibition at 1 µM (%), EGFR (ErbB1), 1 µM, ZLYTE, ATP Km app): 4%
- Inhibition at 1 µM (%) (WNK2; [3]): 4%
- inhibition at 1 µM (WNK2; [2]): 5%
- inhibition at 1 µM (WNK2; [4]): 5%
- inhibition at 1 µM (GRK4; [2]): -1%
- Inhibition at 1 µM (%) (GRK4): -2%
- Inhibition at 1 µM (%) (GRK4; listed as WEL028, 1 µM): 1%
- Inhibition at 1 µM (%) (ULK2; [3]): 4%
- inhibition at 1 µM (ULK2; [2]): 3%
- inhibition at 1 µM (ULK2; [4]): 2%
- inhibition at 0.1 µM (~150 kDa protein): ~80%
- Inhibition (%) (CDK2/cyclin A; 1 μM WEL028, 1 h preincubation): -3%
- Inhibition at 1 µM (%) (CDK2/cyclin A; CDK2/cyclin A, 1 µM, ZLYTE, ATP Km app, listed as WEL028, 1 µM): -5% and 0%
- inhibition at 1 µM (NEK2; [2]): 12%
- Inhibition at 1 µM (%) (NEK2; NEK2, 1 µM, ZLYTE, ATP Km app): 21%
